Some results are limits rather than exact numbers.

Drawing on US12344618B2, “Heterotricyclic derivative compound and use of same” (HANMI PHARMACEUTICAL CO., LTD., priority 2019, dated 2025), this text covers IC50 and GI50 for 21 molecules.

In the first test the target is EZH2 (Homo sapiens, UniProt Q15910). The test can be described thus: Inhibitory activity against EZH2 methyltransferase (radiometric scintillation proximity assay).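 Further: Read-out is substrate peptide methylation, captured on streptavidin-coated SPA beads and counted by scintillation, with the reaction run in Tris-HCl buffer at pH 8.0 containing 1% DMSO.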 Particulars: Enzyme inhibitory activity (IC50, nM) EZH2, 2.3 nmol/L enzyme, 90 minutes, room temperature. In general terms: SPA uses beads or plates that emit light when radiolabelled molecules are held near them.
Sequence of EZH2 (Q15910 whole entry): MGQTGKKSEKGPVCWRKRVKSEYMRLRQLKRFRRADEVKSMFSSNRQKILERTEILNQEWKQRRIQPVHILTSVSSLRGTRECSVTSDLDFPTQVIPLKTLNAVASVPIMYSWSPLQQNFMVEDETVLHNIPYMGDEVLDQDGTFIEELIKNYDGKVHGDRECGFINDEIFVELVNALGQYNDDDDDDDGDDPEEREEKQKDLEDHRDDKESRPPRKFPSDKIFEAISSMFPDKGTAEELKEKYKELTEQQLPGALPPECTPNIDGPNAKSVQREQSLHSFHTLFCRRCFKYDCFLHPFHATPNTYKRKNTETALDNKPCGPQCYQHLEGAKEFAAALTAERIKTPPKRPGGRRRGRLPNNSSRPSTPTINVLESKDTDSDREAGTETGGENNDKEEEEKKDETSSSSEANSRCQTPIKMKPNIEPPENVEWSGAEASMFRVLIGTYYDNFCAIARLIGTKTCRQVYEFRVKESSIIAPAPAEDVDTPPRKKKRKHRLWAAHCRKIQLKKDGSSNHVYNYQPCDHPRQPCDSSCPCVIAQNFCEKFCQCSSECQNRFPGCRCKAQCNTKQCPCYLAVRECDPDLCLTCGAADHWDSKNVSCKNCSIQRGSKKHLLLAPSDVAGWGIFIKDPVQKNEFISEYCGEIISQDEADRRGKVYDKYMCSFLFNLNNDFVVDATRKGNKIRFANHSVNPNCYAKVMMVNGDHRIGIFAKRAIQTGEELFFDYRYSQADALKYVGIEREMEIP
Sequence of EZH2 (O75530 whole entry partner): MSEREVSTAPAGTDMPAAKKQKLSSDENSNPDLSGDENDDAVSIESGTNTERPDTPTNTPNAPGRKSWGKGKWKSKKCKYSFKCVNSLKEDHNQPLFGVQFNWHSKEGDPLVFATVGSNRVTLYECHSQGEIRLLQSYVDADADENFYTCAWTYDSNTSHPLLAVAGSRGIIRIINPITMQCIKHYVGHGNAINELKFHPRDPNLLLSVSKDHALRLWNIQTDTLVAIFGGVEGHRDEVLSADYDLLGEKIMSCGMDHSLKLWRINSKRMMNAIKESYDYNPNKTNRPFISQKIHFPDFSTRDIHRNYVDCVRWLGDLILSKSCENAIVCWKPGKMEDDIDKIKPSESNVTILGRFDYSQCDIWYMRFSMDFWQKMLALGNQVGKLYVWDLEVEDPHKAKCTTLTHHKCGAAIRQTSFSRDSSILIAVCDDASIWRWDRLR
Sequence of EZH2 (Q15022 whole entry partner): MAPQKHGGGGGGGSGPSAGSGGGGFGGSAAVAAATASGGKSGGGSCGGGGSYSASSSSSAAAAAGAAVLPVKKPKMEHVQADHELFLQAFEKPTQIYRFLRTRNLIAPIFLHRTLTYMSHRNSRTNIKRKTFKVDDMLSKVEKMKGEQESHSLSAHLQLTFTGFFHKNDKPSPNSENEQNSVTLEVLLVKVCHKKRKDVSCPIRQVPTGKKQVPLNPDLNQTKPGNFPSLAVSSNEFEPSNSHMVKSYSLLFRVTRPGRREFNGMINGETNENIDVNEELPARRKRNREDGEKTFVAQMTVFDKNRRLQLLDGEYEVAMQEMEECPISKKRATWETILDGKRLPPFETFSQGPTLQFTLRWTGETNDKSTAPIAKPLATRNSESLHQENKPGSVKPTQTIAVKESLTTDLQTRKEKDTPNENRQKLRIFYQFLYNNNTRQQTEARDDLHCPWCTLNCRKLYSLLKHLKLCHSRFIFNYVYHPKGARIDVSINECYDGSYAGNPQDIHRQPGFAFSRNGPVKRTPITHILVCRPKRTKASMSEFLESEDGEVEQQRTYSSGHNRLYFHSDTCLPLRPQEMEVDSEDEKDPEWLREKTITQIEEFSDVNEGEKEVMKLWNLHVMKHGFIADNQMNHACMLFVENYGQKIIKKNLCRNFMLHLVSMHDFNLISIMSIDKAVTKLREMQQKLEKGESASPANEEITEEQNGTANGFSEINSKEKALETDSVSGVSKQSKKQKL
Sequence of EZH2 (Q09028 whole entry partner): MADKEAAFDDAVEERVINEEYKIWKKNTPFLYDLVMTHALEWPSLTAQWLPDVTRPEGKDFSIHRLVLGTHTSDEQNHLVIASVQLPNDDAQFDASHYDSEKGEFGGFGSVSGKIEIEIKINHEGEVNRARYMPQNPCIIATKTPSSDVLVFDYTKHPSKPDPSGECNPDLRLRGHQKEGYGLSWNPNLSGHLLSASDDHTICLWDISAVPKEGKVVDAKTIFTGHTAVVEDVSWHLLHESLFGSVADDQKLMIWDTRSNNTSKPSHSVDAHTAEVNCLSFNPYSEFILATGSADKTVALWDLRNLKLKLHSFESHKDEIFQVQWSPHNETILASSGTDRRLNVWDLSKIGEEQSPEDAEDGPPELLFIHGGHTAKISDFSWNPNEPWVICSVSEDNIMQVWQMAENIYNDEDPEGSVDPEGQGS
Sequence of EZH2 (Q6ZN18 whole entry partner): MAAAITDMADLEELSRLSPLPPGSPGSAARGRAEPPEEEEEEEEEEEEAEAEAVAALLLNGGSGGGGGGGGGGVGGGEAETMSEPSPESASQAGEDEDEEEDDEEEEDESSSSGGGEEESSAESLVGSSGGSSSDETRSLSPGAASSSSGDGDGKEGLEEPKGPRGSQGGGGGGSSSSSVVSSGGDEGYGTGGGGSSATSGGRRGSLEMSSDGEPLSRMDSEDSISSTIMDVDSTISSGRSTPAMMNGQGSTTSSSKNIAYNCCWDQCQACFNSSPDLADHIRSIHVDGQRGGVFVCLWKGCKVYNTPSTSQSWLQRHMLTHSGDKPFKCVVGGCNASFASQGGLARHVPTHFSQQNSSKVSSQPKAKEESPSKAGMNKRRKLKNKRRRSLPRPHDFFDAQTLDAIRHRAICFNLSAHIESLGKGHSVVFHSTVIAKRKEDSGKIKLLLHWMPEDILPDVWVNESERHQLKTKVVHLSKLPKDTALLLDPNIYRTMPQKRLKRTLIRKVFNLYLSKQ
Method: The inhibitory activities of the synthetic compounds against EZH1 or EZH2 methyltransferase were measured. The experiment was conducted by Reaction Biology Corp., and the activity of EZH1 or EZH2 was measured using a radiometric scintillation proximity assay. […] The reaction buffer consisted of 50 mmol/L Tris-HCl (pH 8.0), 50 mmol/L NaCl, 1 mmol/L EDTA, 1 mmoL/L DTT, 1 mmol/L PMSF, and 1% DMSO. Trichloroacetic acid was added to terminate the reaction, and PVT streptavidin-coated SPA beads were added to each reaction solution, followed by further reaction at room temperature for 1 hour again. The methylation value of the substrate peptide was measured using the TopCount NXT plate reader.
The IC50 is the concentration that gives 50% inhibition. High values mean lower potency, low ones higher potency. For `Cc1cc(C)c(CN2CCc3c(Cl)c4c(c(C)c3C2=O)OC(C)([C@H]2CC[C@H](N)CC2)O4)c(=O)[nH]1` (stereo partly drawn) [Compound 8, 2-(trans-4-aminocyclohexyl)-9-chloro-6-((4,6-dimethyl-2-oxo-1,2-dihydropyridin-3-yl)methyl)-2,4-dimethyl-7,8-dihydro-[1,3]dioxolo[4,5-g]isoquinolin-5(6H)-one], the IC50 worked out at 3.2 nM.

In another test the test system is KARPAS-422 (EZH2 Y641N mutation). As to the kind of experiment: Cell growth inhibition test, KARPAS-422. The class given is cell-based. Conditions: Homo sapiens, KARPAS-422, 168 h, KARPAS-422, culture time 7 days; read-out: Cell growth inhibitory activity (GI50, nM) KARPAS-422 (EZH2 Y641N mutation). Here is the method:
Each type of the cultured cells was seeded in 6-well plates or 48-96 well plates, and subculture or medium replacement was performed every 3 to 4 days. Next, the cells were subcultured for a total of 7 to 14 days, and then seeded in 96-well plates. 3 to 5 days before the measurement of the effect, the cells were seeded in 96-well plates, and then the absorbance (Tz) on the day of seeding was measured. The absorbance after the reaction was measured by the plate reader device Synergy NeoAlpha (Biotek) using Cell-Titer-Glo Cell Viability Assay (Promega, G7573) according to the attached manual. Based on the absorbance (Tz) measured on the seeding day and the absorbance of each of the DMSO-treated group (C) and the sample-added group (Ti) measured on the day of effect determination, the percentage of cell proliferation inhibition was calculated according to the following Equation 1. [(Ti−Tz)/(C−Tz)]×100 for concentrations for which Ti≥Tz […] for concentrations for which Ti<Tz. [Equation 1]
The term GI50 denotes the concentration at which growth is held to half of that of the control. On to `Cc1cc(C)c(CN2CCc3c(Cl)c4c(c(C)c3C2=O)OC(C)([C@@H]2CCC[C@H](N(C)C)C2)O4)c(=O)[nH]1` (relative stereo) [Compound 36, 9-chloro-6-((4,6-dimethyl-2-oxo-1,2-dihydropyridin-3-yl)methyl)-2-(cis-3-(dimethylamino)cyclohexyl)-2,4-dimethyl-7,8-dihydro-[1,3]dioxolo[4,5-g]isoquinolin-5(6H)-one], for which the GI50 was 87 nM.

For `Cc1cc(C)c(CN2CCc3c(Cl)c4c(c(C)c3C2=O)OC(C)([C@@H]2CC[C@H](N(C)C)C2)O4)c(=O)[nH]1` (relative stereo) [Compound 37, 9-chloro-6-((4,6-dimethyl-2-oxo-1,2-dihydropyridin-3-yl)methyl)-2-(cis-3-(dimethylamino)cyclopentyl)-2,4-dimethyl-7,8-dihydro-[1,3]dioxolo[4,5-g]isoquinolin-5(6H)-one], the GI50 worked out at 22 nM.

With `Cc1cc(C)c(CN2CCc3c(cc4c(c3C)OC(C)([C@H]3CC[C@H](N(C)C)CC3)O4)C2=O)c(=O)[nH]1` (stereo partly drawn) [Compound 3, 6-((4,6-dimethyl-2-oxo-1,2-dihydropyridin-3-yl)methyl)-2-(trans-4-(dimethylamino)cyclohexyl)-2,9-dimethyl-7,8-dihydro-[1,3]dioxolo[4,5-g]isoquinolin-5(6H)-one], the GI50 amounted to 39 nM.

Take `Cc1cc(C)c(CN2CCc3c(Cl)c4c(c(C)c3C2=O)OC(C)([C@H]2CC[C@H](N)CC2)O4)c(=O)[nH]1` (stereo partly drawn) [Compound 8, 2-(trans-4-aminocyclohexyl)-9-chloro-6-((4,6-dimethyl-2-oxo-1,2-dihydropyridin-3-yl)methyl)-2,4-dimethyl-7,8-dihydro-[1,3]dioxolo[4,5-g]isoquinolin-5(6H)-one]: the 50% growth inhibitory concentration (GI50) was 13 nM.

On to `Cc1cc(C)c(CN2CCc3c(Cl)c4c(c(C)c3C2=O)OC(C)(c2ccc3c(ccn3C)c2)O4)c(=O)[nH]1` (stereo not shown) [Compound 32, 9-chloro-6-((4,6-dimethyl-2-oxo-1,2-dihydropyridin-3-yl)methyl)-2,4-dimethyl-2-(1-methyl-1H-indol-5-yl)-7,8-dihydro-[1,3]dioxolo[4,5-g]isoquinolin-5(6H)-one], for which the GI50 is more than 1000 nM.

Turning to `CO[C@H]1CC[C@H](C2(C)Oc3c(C)c4c(c(Cl)c3O2)CCN(Cc2c(C)cc(C)[nH]c2=O)C4=O)CC1` (stereo partly drawn) [Compound 33, 9-chloro-6-((4,6-dimethyl-2-oxo-1,2-dihydropyridin-3-yl)methyl)-2-(trans-4-methoxycyclohexyl)-2,4-dimethyl-7,8-dihydro-[1,3]dioxolo[4,5-g]isoquinolin-5(6H)-one], the GI50 amounted to 187 nM.

With `Cc1cc(C)c(CN2CCc3c(Cl)c4c(c(C)c3C2=O)OC(C)([C@H]2C[C@H](N(C)C)C2)O4)c(=O)[nH]1` (stereo partly drawn) [Compound 35, 9-chloro-6-((4,6-dimethyl-2-oxo-1,2-dihydropyridin-3-yl)methyl)-2-(trans-3-(dimethylamino)cyclobutyl)-2,4-dimethyl-7,8-dihydro-[1,3]dioxolo[4,5-g]isoquinolin-5(6H)-one], the GI50 was found to be 57 nM.

In the case of `Cc1cc(C)c(CN2CCc3c(c(C)c4c(c3-c3ccccc3)OC(C)([C@H]3CC[C@H](N(C)C)CC3)O4)C2=O)c(=O)[nH]1` (stereo partly drawn) [Compound 56, 6-((4,6-dimethyl-2-oxo-1,2-dihydropyridin-3-yl)methyl)-2-(trans-4-(dimethylamino)cyclohexyl)-2,4-dimethyl-9-phenyl-7,8-dihydro-[1,3]dioxolo[4,5-g]isoquinolin-5(6H)-one], the GI50 stood at 11 nM.

As for `Cc1cc(C)c(CN2CCc3c(c(C)c4c(c3C3=CCCC3)OC(C)([C@H]3CC[C@H](N(C)C)CC3)O4)C2=O)c(=O)[nH]1` (stereo partly drawn) [Compound 57, 9-(cyclopent-1-en-1-yl)-6-((4,6-dimethyl-2-oxo-1,2-dihydropyridin-3-yl)methyl)-2-(trans-4-(dimethylamino)cyclohexyl)-2,4-dimethyl-7,8-dihydro-[1,3]dioxolo[4,5-g]isoquinolin-5(6H)-one], the GI50 was found to be 13 nM.

As to `Cc1cc(C)c(CN2CCc3c(c(C)c4c(c3C3CCCC3)OC(C)([C@H]3CC[C@H](N(C)C)CC3)O4)C2=O)c(=O)[nH]1` (stereo partly drawn) [Compound 58, 9-cyclopentyl-6-((4,6-dimethyl-2-oxo-1,2-dihydropyridin-3-yl)methyl)-2-(trans-4-(dimethylamino)cyclohexyl)-2,4-dimethyl-7,8-dihydro-[1,3]dioxolo[4,5-g]isoquinolin-5(6H)-one], the GI50 stood at 13 nM.

Consider `Cc1cc(C)c(CN2CCc3c(c(C)c4c(c3C3=CCCCC3)OC(C)([C@H]3CC[C@H](N(C)C)CC3)O4)C2=O)c(=O)[nH]1` (stereo partly drawn) [Compound 59, 9-(cyclohex-1-en-1-yl)-6-((4,6-dimethyl-2-oxo-1,2-dihydropyridin-3-yl)methyl)-2-(trans-4-(dimethylamino)cyclohexyl)-2,4-dimethyl-7,8-dihydro-[1,3]dioxolo[4,5-g]isoquinolin-5(6H)-one], for which the GI50 came out at 28 nM.

For `Cc1cc(C)c(CN2CCc3c(c(C)c4c(c3C3CCCCC3)OC(C)([C@H]3CC[C@H](N(C)C)CC3)O4)C2=O)c(=O)[nH]1` (stereo partly drawn) [Compound 60, 9-cyclohexyl-6-((4,6-dimethyl-2-oxo-1,2-dihydropyridin-3-yl)methyl)-2-(trans-4-(dimethylamino)cyclohexyl)-2,4-dimethyl-7,8-dihydro-[1,3]dioxolo[4,5-g]isoquinolin-5(6H)-one], the 50% growth inhibitory concentration (GI50) was found to be 28 nM.

Turning to `C=C(C)c1c2c(c(C)c3c1OC(C)([C@H]1CC[C@H](N(C)C)CC1)O3)C(=O)N(Cc1c(C)cc(C)[nH]c1=O)CC2` (stereo partly drawn) [Compound 61, 6-((4,6-dimethyl-2-oxo-1,2-dihydropyridin-3-yl)methyl)-2-(trans-4-(dimethylamino)cyclohexyl)-2,4-dimethyl-9-(prop-1-en-2-yl)-7,8-dihydro-[1,3]dioxolo[4,5-g]isoquinolin-5(6H)-one], the GI50 was determined as 4.8 nM.

Take `Cc1cc(C)c(CN2CCc3c(c(C)c4c(c3C(C)C)OC(C)([C@H]3CC[C@H](N(C)C)CC3)O4)C2=O)c(=O)[nH]1` (stereo partly drawn) [Compound 62, 6-((4,6-dimethyl-2-oxo-1,2-dihydropyridin-3-yl)methyl)-2-(trans-4-(dimethylamino)cyclohexyl)-9-isopropyl-2,4-dimethyl-7,8-dihydro-[1,3]dioxolo[4,5-g]isoquinolin-5(6H)-one]: the 50% growth inhibitory concentration (GI50) turned out to be 6.2 nM.

For `CCc1c2c(c(C)c3c1OC(C)([C@H]1CC[C@H](N(C)C)CC1)O3)C(=O)N(Cc1c(C)cc(C)[nH]c1=O)CC2` (stereo partly drawn) [Compound 63, 6-((4,6-dimethyl-2-oxo-1,2-dihydropyridin-3-yl)methyl)-2-(trans-4-(dimethylamino)cyclohexyl)-9-ethyl-2,4-dimethyl-7,8-dihydro-[1,3]dioxolo[4,5-g]isoquinolin-5(6H)-one], the GI50 was 4.4 nM.

`Cc1cc(C)c(CN2CCc3c(c(C)c4c(c3-c3ccco3)OC(C)([C@H]3CC[C@H](N(C)C)CC3)O4)C2=O)c(=O)[nH]1` (stereo partly drawn) [Compound 64, 6-((4,6-dimethyl-2-oxo-1,2-dihydropyridin-3-yl)methyl)-2-(trans-4-(dimethylamino)cyclohexyl)-9-(furan-2-yl)-2,4-dimethyl-7,8-dihydro-[1,3]dioxolo[4,5-g]isoquinolin-5(6H)-one]: the GI50 stood at 5 nM.

For the molecule `Cc1cc(C)c(CN2CCc3c(c(C)c4c(c3C3=CCOCC3)OC(C)([C@H]3CC[C@H](N(C)C)CC3)O4)C2=O)c(=O)[nH]1` (stereo partly shown) [Compound 65], the concentration for 50% growth inhibition (GI50) was 8.8 nM.

Turning to `Cc1cc(C)c(CN2CCc3c(c(C)c4c(c3-c3cccnc3)OC(C)([C@H]3CC[C@H](N(C)C)CC3)O4)C2=O)c(=O)[nH]1` (stereo partly drawn) [Compound 66, 6-((4,6-dimethyl-2-oxo-1,2-dihydropyridin-3-yl)methyl)-2-(trans-4-(dimethylamino)cyclohexyl)-2,4-dimethyl-9-(pyridin-3-yl)-7,8-dihydro-[1,3]dioxolo[4,5-g]isoquinolin-5(6H)-one], the GI50 worked out at 6.4 nM.

Regarding `Cc1cc(C)c(CN2CCc3c(c(C)c4c(c3-c3cncs3)OC(C)([C@H]3CC[C@H](N(C)C)CC3)O4)C2=O)c(=O)[nH]1` (stereo partly drawn) [Compound 67, 6-((4,6-dimethyl-2-oxo-1,2-dihydropyridin-3-yl)methyl)-2-(trans-4-(dimethylamino)cyclohexyl)-2,4-dimethyl-9-(thiazol-5-yl)-7,8-dihydro-[1,3]dioxolo[4,5-g]isoquinolin-5(6H)-one], the GI50 stood at 4.3 nM.

`Cc1cc(C)c(CN2CCc3c(c(C)c4c(c3-c3cnn(C)c3)OC(C)([C@H]3CC[C@H](N(C)C)CC3)O4)C2=O)c(=O)[nH]1` (stereo partly drawn) [Compound 68, 6-((4,6-dimethyl-2-oxo-1,2-dihydropyridin-3-yl)methyl)-2-(trans-4-(dimethylamino)cyclohexyl)-2,4-dimethyl-9-(1-methyl-1H-pyrazol-4-yl)-7,8-dihydro-[1,3]dioxolo[4,5-g]isoquinolin-5 (6H)-one]: the GI50 was determined as 5.1 nM.

Staying with this test, now noted: KARPAS-422, culture time 7 days; read-out: Cell growth inhibitory activity (GI50, nM) KARPAS-422 (EZH2 Y641N mutation).
In the case of `Cc1cc(C)c(CN2CCc3c(C)c4c(c(Cl)c3C2=O)OC(C)([C@H]2CC[C@H](N(C)C)CC2)O4)c(=O)[nH]1` (single isomer, unassigned) [Compound 6, 4-chloro-6-((4,6-dimethyl-2-oxo-1,2-dihydropyridin-3-yl)methyl)-2-(trans-4-(dimethylamino)cyclohexyl)-2,9-dimethyl-7,8-dihydro-[1,3]dioxolo[4,5-g]isoquinolin-5(6H)-one], the GI50 came out at 310 nM.
